# Source: patent US12029738B2, “Antiproliferative compounds and methods of use thereof” (Celgene Corporation, priority 2017, dated 2024)
# Read-outs that look alike come from different tables or passages of the source.
# Columns and labels:
# NCI-H929 = assay: Cell proliferation assay (CTG, 120 h); format: cell-based; details: Homo sapiens
# Protocol: (§1) Cell Culture Materials: Human multiple myeloma cell lines were purchased from the vendors and cultured at 37° C. with 5% CO2 in the media as indicated in Table 1. Lenalidomide and pomalidomide resistant cell lines were obtained by methods as generally described previously (Lopez-Girona et al Leukemia 2012; 26(11): 2335). All cell lines were kept in log phase, and cell density and viability were monitored by trypan blue exclusion using the Vi-cell XR cell viability analyzer (Beckman Coulter, Brea, CA).
# (§2) Preparation of Solutions of Test Article: Compounds were plated into black 384-well plates (Corning Inc.) to a final DMSO volume of 0.1% assuming a maximal volume of 50 μL. A 10-point dose response starting at 10 μM with a 1:3 dilution was printed in duplicate by acoustic dispense using the EDC ATS-100 platform. Alternatively, the 10-point dose response starting at 10 μM with a 1:10 dilution, or starting at 100 nM with a 1:3 dilutions were used.
# (§3) Cell Proliferation Assays: The effect of compounds on the proliferation/viability of the hematological cell lines (Table 1), was assessed after 120 h incubation using CTG (Promega), according to manufacturer's instructions. Hematological cell lines were dispensed into compound plates by a Multidrop Combi Reagent Dispenser (Thermo Scientific, Waltham, MA) at a concentration of 0.1×10^6 cells per mL in a 50 μL total volume. At 120 h, 25 μL per well of CTG was dispensed by a Multidrop Combi Reagent Dispenser and adenosine triphosphate (ATP) release by viable cells was measured as relative luminescence units after 30 minutes using the Envision platform.
# (§4) Results. […] The MM cell lines selected for this study were lines sensitive and resistant to lenalidomide and/or pomalidomide (Table 1), two agents used in the clinic to treat myeloma patients. Proliferation was assessed using the CellTitre-Glo© assay. Results for cultures incubated with the compounds were normalized to results for control cultures for each cell line. The IC50 for inhibition of cell growth by the compounds was determined for each cell line using ActivityBase software.
# [1] = tested on: OPM2-P10 (pomalidomide-resistant); assay: Cell proliferation assay (CTG, 120 h); format: cell-based; details: Homo sapiens, read-out: OPM-2.P10 120 h IC50
# Protocol: as §1, §2, §3, §4
# OPM2 = assay: Cell proliferation assay (CTG, 120 h); format: cell-based; details: Homo sapiens, OPM-2
# Protocol: as §1, §2, §3, §4
# MM cell lines = assay: Daratumumab-mediated ADCP assay; format: cell-based, human; details: for daratumumab-mediated ADCP: ARH-77 cell line
# Protocol: ADCP assay: The effect of Compound 2 or pomalidomide on daratumumab-mediated ADCP was determined in a panel of MM cell lines. Monocytes were plated in a 96 well plate at 40,000 cells per well in 100 μL volume of complete AIM-V media containing 50 ng/mL of M-CSF. The cells were allowed to settle onto the plate for 15 minutes at room temperature before placing into 37° C., 5% C02 incubator for 9 days to allow for differentiation into macrophages. The culture media was replenished with fresh complete media every 3-4 days. On the morning of the ADCP assay, the macrophages were serum starved for 2-4 hours at 37° C., 5% C02 before co-culturing with the MM cells. The MM cells were pretreated with sub-lethal concentrations of Compound 2 or pomalidomide for 72 h. On the day of the assay, the MM cells were washed with PBS and labeled with CSFE for 15 minutes. The reaction was stopped with an equal volume of 20% FBS. The cells were washed twice with PBS and resuspended in AIM-V media at 1.6×10^6 cells/mL. Then 50 μL of MM cells was mixed with 50 μL of 2 μg/mL daratumumab for 10 minutes at room temperature before adding to the serum starved macrophages. Each condition was assayed in triplicate. The final volume of the assay was 200 μL containing 10% human serum with an effector to target ratio of […]. The plate was spun at 500 rpm for 1 minute followed by incubation at 37° C., 5% CO2 for 3 h. At the end of the incubation, the plate was washed with 100 μL of PBS and the remaining cells were stained with anti-CD14 and anti-CD138 to identify the macrophages and MM cells, respectively. The plate was washed and the wells were filled with 100 μL of PBS. The macrophages were detached from the bottom of the wells with the addition of 50 μL of 0.25% trypsin. The samples were neutralized with the addition of 50 μL of complete AIM-V media. The samples were analyzed on flow cytometer. The percent phagocytosis was determined by the CSFE/CD14 double positive cells divided by the total number of CD14+ cells times 100.
# JJN-3 = assay: Flow cytometry proliferation/apoptosis assay (120 h); format: cell-based, human
# Protocol: Methods. […] Using 5 mM stocks, compounds were pre-spotted into the appropriate wells of 96-well plates using a Hewlett-Packard D300 Digital Dispenser. Cells were added to 96-well plates using a Multidrop Combi Reagent Dispenser. After 5 days of treatment, flow cytometric analysis was used to determine the number of cells that were alive, dead, or apoptotic. After 5 days of treatment, cells were incubated with annexin V to stain exposed phosphatidylserine, an apoptotic cell-surface marker, and the vital dye 7-AAD, which is excluded from cells with intact cell membranes, and analyzed by flow cytometry (Attune®, Thermo Fisher). Analysis was then performed to determine the number of live cells (annexin V and 7-AAD double negative staining cells) and the percentage of apoptotic cells (annexin V positive cells) for each condition, relative to the DMSO control treated, was calculated. All described values were normalized to DMSO-only treated cells. […] The live cell count for every concentration was normalized to the DMSO control (considered as 100%) in Microsoft Excel to generate the proliferation curves. […] Similarly, for apoptosis analysis, the percentage of drug-induced apoptosis was calculated for all doses by combining both “early” (annexin V positive and 7-AAD negative) and “late” apoptosis (annexin V and 7-AAD positive) values and subtracting background values (cell treated with vehicle control DMSO). […] The area under the dose-response curve (AUC) was calculated since it integrates potency and efficacy of the drugs to represent apoptosis into a single parameter.
# Each data point represents 2 independent experiments with at least two samples in each experiment.
# [2] = JJN-3 (DSMZ); 120 h; scale 0-10000
compound,measurement,setting,value
"N#Cc1ccc(N2CCN(Cc3ccc(COc4cccc5c4CN(C4CCC(=O)NC4=O)C5=O)cc3)CC2)c(F)c1 (racemic) [Compound 1, 4-(4-(4-(((2-(2,6-dioxopiperidin-3-yl)-1-oxoisoindolin-4-yl)oxy)methyl)benzyl)piperazin-1-yl)-3-fluorobenzonitrile]",IC50,NCI-H929,< 0.5 nM
same,IC50,[1],19 nM
same,IC50,OPM2,< 0.5 nM
"Nc1cccc2c1C(=O)N(C1CCC(=O)NC1=O)C2=O (stereo not shown) [Pomalidomide, pomalidomide]",daratumumab-mediated ADCP,MM cell lines,no enhanced ADCP
same,IC50,JJN-3; Homo sapiens; JJN-3; 120 h; read-out: Antiproliferative Activity (Flow Cytometry) IC50,366 nM
same,induced apoptosis AUC (area under the dose response curve),JJN-3; [2],199.1
"N#Cc1ccc(N2CCN(Cc3ccc(COc4cccc5c4CN([C@H]4CCC(=O)NC4=O)C5=O)cc3)CC2)c(F)c1 [Compound 2, (S)-4-(4-(4-(((2-(2,6-dioxopiperidin-3-yl)-1-oxoisoindolin-4-yl)oxy)methyl)benzyl)piperazin-1-yl)-3-fluorobenzonitrile]",daratumumab-mediated ADCP of pretreated MM cells,"MM cell lines; 72 h pretreatment, macrophages E:T 2:1",more sensitive to daratumumab-mediated ADCP compared to untreated and pomalidomide treated cells
same,daratumumab-mediated ADCP,MM cell lines,no enhanced ADCP
same,IC50,NCI-H929,0.07 nM
same,IC50,[1],4.3 nM
same,IC50,OPM2,0.07 nM
same,IC50,"JJN-3; Homo sapiens, JJN-3, 120 h, read-out: Antiproliferative Activity (Flow Cytometry) IC50",0.1 nM
same,induced apoptosis AUC (area under the dose response curve),JJN-3; [2],1125
